Values of other authors as cited in publication PMC12586580 (Nature Communications, 2025).

Key:
[1] = tested on: Pmt4
[2] = tested on: Pmt2 MIR domain
[3] = tested on: Pmt3 MIR domain

## Ccw5: yeast cell wall protein 5 (Ccw5) (ASKTSTNATSSSCATPSLKD)
[1]
  Pmt4 substrate property (in words): good Pmt4 substrate

## OC[C@H]1OC(O)[C@@H](O)[C@@H](O)[C@@H]1O (stereo partly drawn) [Man, mannose]
[2]
  affinity for Man: low mM affinity
[3]
  affinity for Man: low mM affinity
